{"source": "patent US20050003422A1", "about": "“Methods for assessing and treating cancer” (priority 2003, published 2005)", "tested_on": "AML patients", "test": "Clinical response of relapsed or refractory AML patients treated with the FTI", "assay_type": "in vivo, human", "settings": "of a total of 199 evaluable AML patients; 600 mg b.i.d. oral, first 21 days of each 28 day cycle", "method": "In the nonprophetic examples, AML patients were administered 600 mg of (R)-6-[amino(4-chlorophenyl)(1-methyl-1H-imidazol-5-yl)methyl]-4-(3-chlorophenyl)-1-methyl-2(1H)-quinolinone) (referred to as Zamestra™) at a starting oral dose of 600 mg b.i.d. for the first 21 days of each 28 day cycle in AML. Subjects were enrolled into two cohorts, those with relapsed AML and those with refractory AML. A total of […] patients (135 relapsed and 117 refractory) were treated.\nAnti-leukemic activity is defined as any bone marrow blast count less than 5% or a reduction in bone marrow blasts by at least half.\nThe average value of the site and DCL blast count measurements were calculated and a Student's t-test was performed to investigate if blast counts correlated with patient response in the AML patients. […] Chi-squared analysis for all evaluable patients also found a significant correlation between high blast counts and resistance to treatment (Ω^2=9.53).", "data": [{"smiles": "Cn1cncc1[C@@](N)(c1ccc(Cl)cc1)c1ccc2c(c1)c(-c1cccc(Cl)c1)cc(=O)n2C", "note": "[Zamestra]", "values": [{"measurement": "evaluable patients who had a CR, CRp, PR, or SD", "result": 24}]}]}
